Experiment [1] addresses T1, DNA-dependent protein kinase (DNA-PK) (Homo sapiens, UniProt P78527).
T1 construct: endogenous in cells; host or cells: Jurkat, clone E6-1 (ATCC TIB-152) cell lysate
Description: kinobeads assay, DNA-PK. The experiment is classed as binding. The method in brief: (§1)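 Competitive binding in Jurkat cell lysate (5 mg/mL protein) against beads carrying an immobilized phenylmorpholin-chromen ligand, in DP buffer pH 7.4 with NP40, DTT and NaF. Bead-bound kinases were eluted and quantified by antibody dot blot with infrared detection, and IC50 was taken from dose-response curves of a 1:3 dilution series.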

For a further experiment, the target named is T2, PI3K delta (PI3 Kd) (Homo sapiens, UniProt O00329).
T2 construct: endogenous in cells; host or cells: Jurkat, clone E6-1 (ATCC TIB-152) cell lysate
The experiment can be described thus: kinobeads assay, PI3K delta. The format is binding. The conditions noted are these: kinobeads assay, read-out: Inhibition values (IC50) PI3Kd. In a few lines: as §1

The mark [2] stands for this setting: kinobeads assay, Table 4, read-out: Inhibition values (IC50) DNA-PK.
Setting [3] is: kinobeads assay, Table 6, read-out: Inhibition values (IC50) DNAPK.

From patent US8785457B2 (Cellzome Limited, priority 2009, dated 2014) come the findings set out here.

Each structure is given as a SMILES string. Where two headings read alike, the source gives them in different places.

T1 sequence (P78527 whole entry): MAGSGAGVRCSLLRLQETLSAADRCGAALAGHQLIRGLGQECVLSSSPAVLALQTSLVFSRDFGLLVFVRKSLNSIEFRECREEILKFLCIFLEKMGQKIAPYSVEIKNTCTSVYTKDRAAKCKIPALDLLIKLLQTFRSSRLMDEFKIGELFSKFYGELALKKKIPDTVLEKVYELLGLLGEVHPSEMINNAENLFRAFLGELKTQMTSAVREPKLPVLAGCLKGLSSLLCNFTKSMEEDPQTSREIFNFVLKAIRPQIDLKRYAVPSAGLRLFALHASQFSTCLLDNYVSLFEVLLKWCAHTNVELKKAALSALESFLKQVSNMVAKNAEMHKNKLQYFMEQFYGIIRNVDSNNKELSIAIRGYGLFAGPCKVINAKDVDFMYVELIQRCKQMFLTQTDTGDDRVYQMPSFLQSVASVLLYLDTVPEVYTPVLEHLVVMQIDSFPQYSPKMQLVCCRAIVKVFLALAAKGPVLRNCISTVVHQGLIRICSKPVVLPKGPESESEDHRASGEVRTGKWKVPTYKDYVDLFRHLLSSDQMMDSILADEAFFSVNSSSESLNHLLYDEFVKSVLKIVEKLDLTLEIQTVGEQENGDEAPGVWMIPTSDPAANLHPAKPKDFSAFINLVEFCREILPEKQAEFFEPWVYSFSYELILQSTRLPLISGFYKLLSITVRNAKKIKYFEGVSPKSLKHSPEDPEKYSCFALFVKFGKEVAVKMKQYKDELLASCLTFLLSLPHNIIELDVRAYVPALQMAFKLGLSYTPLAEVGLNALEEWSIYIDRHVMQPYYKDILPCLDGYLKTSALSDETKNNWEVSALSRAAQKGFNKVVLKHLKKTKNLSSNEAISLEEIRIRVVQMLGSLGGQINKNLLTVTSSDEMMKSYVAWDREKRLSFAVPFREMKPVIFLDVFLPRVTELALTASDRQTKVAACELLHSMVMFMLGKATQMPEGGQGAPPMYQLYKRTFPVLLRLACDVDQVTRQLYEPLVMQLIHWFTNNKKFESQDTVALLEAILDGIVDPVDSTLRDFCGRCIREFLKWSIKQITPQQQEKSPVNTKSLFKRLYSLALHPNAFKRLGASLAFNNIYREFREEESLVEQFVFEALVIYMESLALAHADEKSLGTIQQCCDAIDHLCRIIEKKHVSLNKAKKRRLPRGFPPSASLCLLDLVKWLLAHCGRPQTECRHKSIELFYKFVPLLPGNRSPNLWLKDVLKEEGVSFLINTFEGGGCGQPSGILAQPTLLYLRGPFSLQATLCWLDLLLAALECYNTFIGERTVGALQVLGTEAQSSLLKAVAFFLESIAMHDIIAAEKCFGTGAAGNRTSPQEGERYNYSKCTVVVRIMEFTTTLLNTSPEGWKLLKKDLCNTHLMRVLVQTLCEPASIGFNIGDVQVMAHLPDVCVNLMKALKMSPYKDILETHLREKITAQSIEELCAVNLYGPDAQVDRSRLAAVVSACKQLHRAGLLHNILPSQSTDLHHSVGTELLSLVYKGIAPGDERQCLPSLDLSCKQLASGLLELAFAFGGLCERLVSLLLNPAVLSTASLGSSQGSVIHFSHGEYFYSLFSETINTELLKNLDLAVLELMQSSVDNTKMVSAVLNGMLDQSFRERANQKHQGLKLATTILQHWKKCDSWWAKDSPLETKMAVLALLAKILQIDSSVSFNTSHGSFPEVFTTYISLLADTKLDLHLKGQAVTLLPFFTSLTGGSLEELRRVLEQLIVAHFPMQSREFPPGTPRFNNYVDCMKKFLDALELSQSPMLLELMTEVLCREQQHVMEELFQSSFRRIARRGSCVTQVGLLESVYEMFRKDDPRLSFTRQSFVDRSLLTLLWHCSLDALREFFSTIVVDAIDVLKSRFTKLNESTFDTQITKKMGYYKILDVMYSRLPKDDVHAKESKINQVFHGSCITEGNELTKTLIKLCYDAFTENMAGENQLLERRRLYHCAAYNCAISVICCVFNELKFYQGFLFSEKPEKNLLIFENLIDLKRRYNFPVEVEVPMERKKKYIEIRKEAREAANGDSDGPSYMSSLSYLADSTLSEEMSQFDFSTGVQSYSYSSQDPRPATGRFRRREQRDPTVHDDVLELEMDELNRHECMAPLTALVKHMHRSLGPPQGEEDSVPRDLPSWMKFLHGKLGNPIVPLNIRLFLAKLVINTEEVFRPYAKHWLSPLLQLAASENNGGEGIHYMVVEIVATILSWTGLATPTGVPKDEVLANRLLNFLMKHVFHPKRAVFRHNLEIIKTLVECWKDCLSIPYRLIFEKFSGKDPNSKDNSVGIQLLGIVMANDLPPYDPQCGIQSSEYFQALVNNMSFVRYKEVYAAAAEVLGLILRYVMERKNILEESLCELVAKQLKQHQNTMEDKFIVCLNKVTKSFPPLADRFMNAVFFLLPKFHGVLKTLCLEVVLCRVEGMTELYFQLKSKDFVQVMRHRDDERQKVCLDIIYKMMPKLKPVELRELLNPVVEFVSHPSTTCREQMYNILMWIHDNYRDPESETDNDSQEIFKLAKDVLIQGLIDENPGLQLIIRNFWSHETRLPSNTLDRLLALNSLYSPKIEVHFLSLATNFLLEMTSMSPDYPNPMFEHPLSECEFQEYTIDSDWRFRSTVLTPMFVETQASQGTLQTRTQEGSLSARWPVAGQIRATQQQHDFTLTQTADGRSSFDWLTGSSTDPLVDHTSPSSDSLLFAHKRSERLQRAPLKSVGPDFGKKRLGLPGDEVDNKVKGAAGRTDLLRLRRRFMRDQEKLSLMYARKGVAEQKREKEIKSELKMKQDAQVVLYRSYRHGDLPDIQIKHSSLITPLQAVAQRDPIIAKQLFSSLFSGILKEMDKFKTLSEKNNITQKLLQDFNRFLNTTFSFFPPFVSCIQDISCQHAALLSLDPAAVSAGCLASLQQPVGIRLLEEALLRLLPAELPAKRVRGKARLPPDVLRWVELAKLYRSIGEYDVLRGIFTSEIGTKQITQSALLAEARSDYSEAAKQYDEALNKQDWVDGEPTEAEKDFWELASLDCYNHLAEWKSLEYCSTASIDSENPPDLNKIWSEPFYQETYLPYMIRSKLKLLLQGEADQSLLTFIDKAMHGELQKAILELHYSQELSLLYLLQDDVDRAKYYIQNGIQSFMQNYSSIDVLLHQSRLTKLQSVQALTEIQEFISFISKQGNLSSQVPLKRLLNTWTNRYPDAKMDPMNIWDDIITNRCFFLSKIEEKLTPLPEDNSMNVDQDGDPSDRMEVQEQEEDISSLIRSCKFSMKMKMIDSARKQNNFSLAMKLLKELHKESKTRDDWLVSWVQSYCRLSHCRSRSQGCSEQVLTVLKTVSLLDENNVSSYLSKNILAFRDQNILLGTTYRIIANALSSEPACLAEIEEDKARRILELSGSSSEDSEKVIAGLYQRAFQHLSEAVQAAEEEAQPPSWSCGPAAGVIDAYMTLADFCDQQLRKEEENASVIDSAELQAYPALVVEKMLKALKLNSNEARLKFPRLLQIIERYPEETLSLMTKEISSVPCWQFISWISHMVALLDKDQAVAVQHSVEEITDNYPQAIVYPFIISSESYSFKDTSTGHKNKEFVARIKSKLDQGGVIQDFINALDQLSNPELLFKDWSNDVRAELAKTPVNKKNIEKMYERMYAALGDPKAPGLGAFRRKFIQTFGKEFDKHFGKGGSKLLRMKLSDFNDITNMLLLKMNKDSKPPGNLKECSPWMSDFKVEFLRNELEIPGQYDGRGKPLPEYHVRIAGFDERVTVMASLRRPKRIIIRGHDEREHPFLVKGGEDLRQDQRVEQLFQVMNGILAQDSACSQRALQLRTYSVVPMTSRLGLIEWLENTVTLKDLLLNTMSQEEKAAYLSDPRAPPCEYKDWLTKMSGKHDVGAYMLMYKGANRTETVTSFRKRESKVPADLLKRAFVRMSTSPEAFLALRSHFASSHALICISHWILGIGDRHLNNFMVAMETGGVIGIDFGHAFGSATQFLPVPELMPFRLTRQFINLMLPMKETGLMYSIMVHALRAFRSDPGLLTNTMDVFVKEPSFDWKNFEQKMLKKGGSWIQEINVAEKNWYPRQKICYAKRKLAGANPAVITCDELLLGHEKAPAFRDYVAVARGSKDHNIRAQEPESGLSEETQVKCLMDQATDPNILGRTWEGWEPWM

As for `CCNC(=O)Nc1ccc(-c2nc3c(c(N4CCOC[C@@H]4C)n2)CN(C=O)C3)cc1` [Example 8, (S)-1-ethyl-3-(4-(6-formyl-4-(3-methylmorpholino)-6,7-dihydro-5H-pyrrolo[3,4-d]pyrimidin-2-yl)phenyl)urea], the IC50 (in experiment [1] (setting [2]); in experiment [1] (setting [3]); at PI3K delta (PI3 Kd) (Table 4); on PI3K delta (PI3 Kd) (Table 6)) was greater than 10 µM in each case.
With `C[C@H]1COCCN1c1nc(-c2ccc(NC(=O)NC3CC3)cc2)nc2c1CNCC2` [Example 11, (S)-1-cyclopropyl-3-(4-(4-(3-methylmorpholino)-5,6,7,8-tetrahydropyrido[4,3-d]pyrimidin-2-yl)phenyl)urea], the IC50 (in experiment [1] (setting [2]); in experiment [1] (setting [3]); on PI3K delta (PI3 Kd) (Table 4); at PI3K delta (PI3 Kd) (Table 6)) was greater than 10 µM in each case.
Turning to `CCNC(=O)Nc1ccc(-c2nc3c(c(N4CCOC[C@@H]4C)n2)CNCC3)cc1` [Example 12, (S)-1-ethyl-3-(4-(4-(3-methylmorpholino)-5,6,7,8-tetrahydropyrido[4,3-d]pyrimidin-2-yl)phenyl)urea], the IC50 (in experiment [1] (setting [2]); in experiment [1] (setting [3]); on PI3K delta (PI3 Kd) (Table 4); on PI3K delta (PI3 Kd) (Table 6)) was greater than 10 µM throughout.
For the compound `CCNC(=O)Nc1ccc(-c2nc3c(c(N4CCOC[C@@H]4C)n2)CCNC3)cc1` [Example 13, (S)-1-ethyl-3-(4-(4-(3-methylmorpholino)-5,6,7,8-tetrahydropyrido[3,4-d]pyrimidin-2yl)phenyl)urea], the IC50 (in experiment [1] (setting [2]); in experiment [1] (setting [3]); at PI3K delta (PI3 Kd) (Table 4); on PI3K delta (PI3 Kd) (Table 6)) was greater than 10 µM throughout.
On to `C[C@H]1COCCN1c1nc(-c2ccc(NC(=O)NC3CC3)cc2)nc2c1CCNC2` [Example 15, (S)-1-cyclopropyl-3-(4-(4-(3-methylmorpholino)-5,6,7,8-tetrahydropyrido[3,4-d]pyrimidin-2-yl)phenyl)urea], for which the IC50 (in experiment [1] (setting [2]); in experiment [1] (setting [3]); at PI3K delta (PI3 Kd) (Table 4); on PI3K delta (PI3 Kd) (Table 6)) was greater than 10 µM each time.
As to `CNC(=O)Nc1ccc(-c2nc3c(c(N4CCOC[C@@H]4C)n2)CCNC3)cc1` [Example 16, (S)-1-methyl-3-(4-(4-(3-methylmorpholino)-5,6,7,8-tetrahydropyrido[3,4-d]pyrimidin-2-yl)phenyl)urea], the IC50 (in experiment [1] (setting [2]); in experiment [1] (setting [3]); at PI3K delta (PI3 Kd) (Table 4); at PI3K delta (PI3 Kd) (Table 6)) was greater than 10 µM each time.
Turning to `C[C@H]1COCCN1c1nc(-c2ccc(NC(=O)NC3CC3)cc2)nc2c1CN(C(=O)C1CC1)C2` [Example 17, (S)-1-(4-(6-(cyclopropanecarbonyl)-4-(3-methylmorpholino)-6,7-dihydro-5H-pyrrolo[3,4-d]pyrimidin-2-yl)phenyl)-3-cyclopropylurea], the IC50 (in experiment [1] (setting [2]); in experiment [1] (setting [3]); at PI3K delta (PI3 Kd) (Table 4); at PI3K delta (PI3 Kd) (Table 6)) was greater than 10 µM throughout.
For the compound `CCNC(=O)Nc1ccc(-c2nc3c(c(N4CCOC[C@@H]4C)n2)CN(C(C)=O)C3)cc1` [Example 18, (S)-1-(4-(6-acetyl-4-(3-methylmorpholino)-6,7-dihydro-5H-pyrrolo[3,4-d]pyrimidin-2-yl)phenyl)-3-ethylurea], the IC50 in experiment [1] (setting [2]) is greater than 10 µM; in experiment [1] (setting [3]) it was greater than 10 µM; at PI3K delta (PI3 Kd) (Table 4) it was 1 to 10 µM; on PI3K delta (PI3 Kd) (Table 6), 1 to 10 µM.
Consider `CC(=O)N1Cc2nc(-c3ccc(NC(=O)NC4CC4)cc3)nc(N3CCOC[C@@H]3C)c2C1` [Example 20, (S)-1-(4-(6-acetyl-4-(3-methylmorpholino)-6,7-dihydro-5H-pyrrolo[3,4-d]pyrimidin-2-yl)phenyl)-3-cyclopropylurea], for which the IC50 (in experiment [1] (setting [2]); in experiment [1] (setting [3]); on PI3K delta (PI3 Kd) (Table 4); at PI3K delta (PI3 Kd) (Table 6)) was greater than 10 µM each time.
As for `CCNC(=O)Nc1ccc(-c2nc3c(c(N4CCOC[C@@H]4C)n2)CN(C(=O)C(C)(C)C)C3)cc1` [Example 22, (S)-1-ethyl-3-(4-(4-(3-methylmorpholino)-6-pivaloyl-6,7-dihydro-5H-pyrrolo[3,4-d]pyrimidin-2-yl)phenyl)urea], the IC50 (in experiment [1] (setting [2]); in experiment [1] (setting [3]); on PI3K delta (PI3 Kd) (Table 4); on PI3K delta (PI3 Kd) (Table 6)) was greater than 10 µM throughout.
`CCNC(=O)Nc1ccc(-c2nc3c(c(N4CCOC[C@@H]4C)n2)CN(C)C3)cc1` [Example 26, (S)-1-ethyl-3-(4-(6-methyl-4-(3-methylmorpholino)-6,7-dihydro-5H-pyrrolo[3,4-d]pyrimidin-2-yl)phenyl)urea]: the IC50 (in experiment [1] (setting [2]); in experiment [1] (setting [3]); on PI3K delta (PI3 Kd) (Table 4); on PI3K delta (PI3 Kd) (Table 6)) was greater than 10 µM each time.
Consider `C[C@H]1COCCN1c1nc(-c2ccc(NC(=O)NC3CC3)cc2)nc2c1CN(CC1CC1)C2` [Example 30], for which the IC50 (in experiment [1] (setting [2]); in experiment [1] (setting [3]); on PI3K delta (PI3 Kd) (Table 4); at PI3K delta (PI3 Kd) (Table 6)) was greater than 10 µM throughout.
In the case of `CCNC(=O)Nc1ccc(-c2nc3c(c(N4CCOC[C@@H]4C)n2)CN(S(C)(=O)=O)C3)cc1` [Example 32, (S)-1-ethyl-3-(4-(4-(3-methylmorpholino)-6-(methylsulfonyl)-6,7-dihydro-5H-pyrrolo[3,4-d]pyrimidin-2-yl)phenyl)urea], the IC50 (in experiment [1] (setting [2]); in experiment [1] (setting [3]); at PI3K delta (PI3 Kd) (Table 4); at PI3K delta (PI3 Kd) (Table 6)) was greater than 10 µM throughout.
Consider `CCNC(=O)N1Cc2nc(-c3ccc(NC(=O)NC4CC4)cc3)nc(N3CCOC[C@@H]3C)c2C1` [Example 33, (S)-2-(4-(3-cyclopropylureido)phenyl)-N-ethyl-4-(3-methylmorpholino)-5H-pyrrolo[3,4-d]pyrimidine-6(7H)-carboxamide], for which the IC50 (in experiment [1] (setting [2]); in experiment [1] (setting [3]); at PI3K delta (PI3 Kd) (Table 4); on PI3K delta (PI3 Kd) (Table 6)) was greater than 10 µM in each case.
On to `CCN1Cc2nc(-c3ccc(NC(=O)NC4CC4)cc3)nc(N3CCOC[C@@H]3C)c2C1` [Example 36, (S)-1-cyclopropyl-3-(4-(6-ethyl-4-(3-methylmorpholino)-6,7-dihydro-5H-pyrrolo[3,4-d]pyrimidin-2-yl)phenyl)urea], for which the IC50 (in experiment [1] (setting [2]); in experiment [1] (setting [3]); at PI3K delta (PI3 Kd) (Table 4); on PI3K delta (PI3 Kd) (Table 6)) was greater than 10 µM each time.
For `C[C@H]1COCCN1c1nc(-c2ccc(NC(=O)NC3CC3)cc2)nc2c1CN(C)C2` [Example 38, (S)-1-cyclopropyl-3-(4-(6-methyl-4-(3-methylmorpholino)-6,7-dihydro-5H-pyrrolo[3,4-d]pyrimidin-2-yl)phenyl)urea], the IC50 (in experiment [1] (setting [2]); in experiment [1] (setting [3]); at PI3K delta (PI3 Kd) (Table 4); at PI3K delta (PI3 Kd) (Table 6)) was greater than 10 µM in each case.
Consider `C[C@H]1COCCN1c1nc(-c2ccc(NC(=O)NC3CCC3)cc2)nc2c1CN(C)C2` [Example 55, (S)-1-cyclobutyl-3-(4-(6-methyl-4-(3-methylmorpholino)-6,7-dihydro-5H-pyrrolo[3,4-d]pyrimidin-2-yl)phenyl)urea], for which the IC50 in experiment [1] (setting [2]) and in experiment [1] (setting [3]) was greater than 10 µM in each case.
On to `COC(=O)N1Cc2nc(-c3ccc(NC(=O)NCCF)cc3F)nc(N3CCOCC3)c2C1` [Example 169, Methyl 2-(2-fluoro-4-(3-(2-fluoroethyl)ureido)phenyl)-4-morpholino-5H-pyrrolo[3,4-d]pyrimidine-6(7H)-carboxylate], for which the IC50 in experiment [1] (Further Kinobeads Data, read-out: DNAPK) is greater than 10 µM.
